Experiments:
[1] = Cyclic voltammetry, reduction potential; assay type: physicochemical; conditions: vs Ag/AgCl; for reduction potential (reduction peak) extrapolated to 0.0 mV s^-1 scan rate: pH 6.0, 0.1 M KCl phosphate buffer; for reduction potential extrapolated to 0.0 mV s^-1 scan rate: pH 7.4, 0.1 M KCl phosphate buffer
Protocol: Each platinum complex was dissolved to a final concentration of 2.0 mM in 0.1 M aqueous KCl buffered with phosphate to either pH 6.0 or 7.4. Cyclic voltammetric (CV) measurements were performed with a model 263 EG&G Princeton Applied Research electrochemical analyzer at varying scan rates of 20-100 mV s^−1. The solvent was degassed by several freeze-pump-thaw cycles and measurements were taken under an atmosphere of argon. The working electrode was made of glassy carbon, the reference electrode was Ag/AgCl, and the counter electrode was a platinum wire. Reported potentials are extrapolated to 0.0 mV s^−1 scan rates to account for the irreversible behavior of the reduction processes.^7

[2] = tested on: NTera-2 cells; assay: Platinum concentration of cell extracts (cytosolic and nuclear fractions) by AAS; assay type: cell-based, human; conditions: 1 μM platinum, 3 h incubation
Protocol: In order to investigate the mechanism by which the SWNTs transport Pt(IV) compounds into cells and release them once inside we devised a strategy to track their intracellular location.
Cell Extract Preparation and Analysis. NTera-2 cells were grown to >90% confluence in 175 cm^2 flasks. These cells were treated separately with 1 μM concentrations of cisplatin, c,c,t-[Pt(NH3)2Cl2(OEt)(O2CCH2CH2CO2H)], and SWNT-Pt(IV) and subsequently incubated for three h at 37° C. The cells were washed thrice with PBS and released by trypsinization into PBS. The cell solutions were centrifuged at 800×g for 10 min and the cell pellets resuspended in 100 μL of ice-cold lysis buffer (1.0 mM DTT (dithiothreitol), 1.0 mM PMSF (phenylmethanesulphonylfluoride), 10 mM KCl, 10 mM MgCl2, pH 7.5) for 15 min. The cells were centrifuged again and the pellets resuspended in 40 μL of ice-cold lysis buffer. The cell membranes were lysed by 10 strokes of a 28 ga. syringe. The resulting suspension was centrifuged at 11,000×g for 20 min and the supernatant was collected as the cytosolic fraction of the cells. […] The lysate was shaken at 1000 rpm for 45 min at […] and then centrifuged at 20,000×g for 10 min at 4° C. The supernatant was collected as the nuclear fraction. The platinum concentration of all fractions was determined by AAS. The protein concentration for each fraction was determined by the bicinchoninic acid (BCA) assay and the total platinum concentration was expressed as nanograms of platinum per microgram of protein (Table 1).

[3] = tested on: NTera-2 cells; assay: MTT cell proliferation / cytotoxicity assay; assay type: cell-based, human
Protocol: In order to evaluate the feasibility of this method for delivering a toxic dose of platinum, cytotoxicity assays of SWNT-Pt(IV) were conducted using the testicular carcinoma cell line NTera-2. Example 3 below describes these experiments, in which the MTT assay was used to determine cell viability following treatment for four days with either the free platinum(IV) complex 2 or with the SWNT-tethered analog (FIG. 2). Compared to cis-[Pt(NH3)2Cl2] (IC50=0.05 μM) the cytotoxicity of the asymmetrically substituted platinum(IV) compound 2 is insignificant (IC50>>0.5 mM). […] Without wishing to be bound to any particular theory, it is thought that this increase is due to the two-fold increase in uptake of Pt relative to free cisplatin.
Cell Culture. Cells from the human testicular cancer line NTera-2 were incubated at 37° C. in 5% CO2 and grown in DMEM (Dulbecco's Modified Eagle's Medium) medium supplemented with 10% fetal bovine serum and 1% penicillin/streptomycin. Cells were passaged every 3 to 4 days and reseeded from frozen stocks after reaching passage number 20.
Cell Proliferation Assay. Ntera-2cells were seeded into 96 well plates at a confluence of 1000 cells per well and incubated for 24 h. The cells were then treated with either cisplatin, compound 1, compound 2, or SWNT-Pt(IV) and incubated for 96 h. The cells were then treated with 20 μL of 3-(4,5-dimethylthiazol-2-yl)-2,5-diphenyltetrazolium bromide (MTT) (5 mg/mL in PBS) and incubated for 5 h. The medium was removed, the cells were lysed with 100 μL of DMSO, and the absorbance of the purple formazan was recorded at 550 nm. The results are presented in FIG. 2, FIG. 7, FIG. 8, and FIG. 9. […] (cisplatin).

| Molecule | reduction potential (reduction peak) extrapolated to 0.0 mV s^-1 scan rate [1] [V] | reduction potential extrapolated to 0.0 mV s^-1 scan rate [1] [V] | Platinum concentration of cell extracts, Cytosolic [2] | Platinum concentration of cell extracts, Nuclear [2] | IC50 [3] [nM] | cytotoxicity (in words) [3] |
| --- | --- | --- | --- | --- | --- | --- |
| CC[O][Pt]([NH2])([NH2])([Cl])([Cl])[O]C(=O)CCC(=O)O [Compound 2, c,c,t-[Pt(NH3)2Cl2(OEt)(O2CCH2CH2CO2H)]] | −0.623 | −0.724 | 3 Pt(ng)/protein(mg) | 6 Pt(ng)/protein(mg) | > 500 | nearly nontoxic |
| cis-[Pt(NH3)2Cl2] [reference compound] |  |  | 11 Pt(ng)/protein(mg) | 14 Pt(ng)/protein(mg) | 50 | significantly more toxic |
| CC[O][Pt]([NH2])([NH2])([OH])([Cl])[Cl] [Compound 1, c,c,t-[Pt(NH3)2Cl2(OH)(OEt)]] | −0.499 | −0.604 |  |  |  | only toxic to cells in micromolar concentrations |
